The values below come from patent US20250090482A1, “COMPOSITIONS AND METHODS FOR THE TREATMENT OF DEPRESSION” (Janssen Pharmaceuticals, Inc., priority 2022, published 2025).

In experiment [1] the test system is TRD patients, 3MM biomarker signature positive or negative. Nature of the experiment: 3MM biomarker signature analysis of MADRS treatment effect across esketamine TRD trials. It counts as in vivo, human. The settings on record: for treatment effect, improvement over placebo: end of double blind treatment. On the procedure: (§1) Samples of venous blood were obtained from patients and healthy control subjects from subject described in Example 1 and from the other clinical trials referenced herein. Serum or plasma was prepared from the samples of venous blood. Measurements of human CRP and IL-6-R were performed in serum using an MSD Sector 6000 with the kits #K151STD and K151ALC (MesoScale Discovery, Rockville, MD). Human TNFα was quantified in serum using a Simoa HD-1 analyzer with kit #143 (Quanterix, Lexington, MA). All measures were performed according to kit manufacturer's recommendations.
(§2) As used in the following biomarker assay analysis, treatment (TRT) refers to treatment with intranasal esketamine plus optionally an oral antidepressant and placebo (PBO) refers to treatment with a placebo plus optionally an oral antidepressant.
(§3) The following biomarker signatures were employed: • 3MM: Inflammatory biomarker signature with positive status defined by CRP>3 mg/L and (TNFα>[…] or sIL6R>25 ng/mL). • 2MM: Inflammatory biomarker signature with positive status defined by CRP>3 mg/L and sIL6R>25 ng/mL. • CRP: Inflammatory biomarker signature with positive status defined by CRP>3 mg/L/
(§4) The 3MM signature was tested in clinical trials for adjunctive MDD, including treatment-resistant MDD (TRD) and MDD with suicidal ideation (SUI). […] Significant was driven by Esketamine (ESK) TRD trials.

For experiment [2], the system named is MDD with suicidal ideation (SUI). The experiment in a line: 3MM biomarker signature analysis in esketamine trials with suicidal ideation (SUI). It is filed as in vivo, human. The protocol:
as §1, §2, §3, §4

The structures appear in SMILES notation. Values joined by “and” are separate entries in the source; they are usually repeats but may differ in a detail not shown here. Equal values may be shown once.

With `CN[C@]1(c2ccccc2Cl)CCCCC1=O` [esketamine, (S)-2-(2-chlorophenyl)-2-(methylamino)cyclohexanone], the “treatment effect, improvement over placebo” value in experiment [1] (3MM biomarker signature negative subjects) is 2 MADRS points and 2.0 MADRS points; in experiment [1] (3MM biomarker signature positive subjects), 7.8 MADRS points. Also, in experiment [1] (3MM positive minus negative), the “difference between subtypes (Signature advantage)” value turned out to be 5.8 point. In addition, the “prediction of treatment effect by 3MM status at baseline” value in experiment [2] is “did not predict treatment effect”.
